Experimental data taken from article PMC11189555, “Aryl amino acetamides prevent Plasmodium falciparum ring development via targeting the lipid-transfer protein PfSTART1” (Nature Communications, 2024).
Where two headings read alike, the source gives them in different places.

Test system: PopE F8 M-833 resistant clone (PfSTART1 N330K)
Test: Growth inhibition assay (72 h, LDH activity)
Format: cell-based, Plasmodium falciparum
Experimental: The drug was then removed, and parasites were allowed to recover. Another cycle of drug treatment (3 μM M-833) was then resumed. The resistant lines were cloned out by limiting dilution (diluting the culture into a 96-well plate to achieve an average of ~0.3 parasites per well), prior to growth inhibition assays and genomic DNA (gDNA) extraction (DNeasy Blood and Tissue kit (Qiagen)[18].
Parasite growth assays with inhibitory compounds were performed as per[11] and are fully described in the Supplementary Information.
Molecular biology and transfection of P. falciparum: CRISPR method.
The full 5’ homology region of pfstart1 (either WT, N309K or N330K) was amplified from pPfSTART1-HA-2A-Neo-glmS with the same 5’ BglII primer and a new 3’ primer that replaced with PstI with SpeI and introduced a stop codon. The PCR product was then digested with BglII and SpeI and inserted into similarly digested p1.2 parasite vector2. The p1.2 vector had previously been inserted with a homology region amplified from the 3’ end of the pfstart1 gene (3’HB) to form a second homology block for double recombination. The primers used to amplify 3’HB are listed primers listed in […]
60 μg of p1.2-PfSTART1(WT/N309K/N330K) plasmid was linearised with KasI, precipitated in 3 M sodium acetate and ethanol (70% final concentration) overnight at -20°C. The DNA pellet was washed in cold 70% ethanol and resuspended in cytomix 3.
50 μ M of crRNA ( Table S 2) and 50 μM of tracRNA (Integrated DNA Technologies) were allowed to form a duplex (5 min at 95°C), and Cas9 enzyme (Integrated DNA Technologies) was added, and incubated for 20 min at room temperature 4. This crRNA -tracRNA -Cas9 mix was added to each DNA preparation and transfected to 3D7 ring parasites using the Bio -Rad Gene Pulser at 310 V and 950 μF.
Parasites containing the transfected DNA were selected using 2.5 nM WR99210 (Jacobus). Parasites lines were cloned using limiting dilution. Correct integration was tested by PCR (using primer START_5’UTR.F and START_Int.R1 , Table S 2), and sequencing was done using the primers START_3F and START_Int.R2 (Table S 2).
Growth inhibition assays. Synchronised ring-stage parasites (0.3-0.6% parasitemia, 2% haematocrit) were grown for 72 h in a serial-dilution of the compound under […]
and compound 4. Note that M-833 was first purchased from MolPort (MolPort -002-267-916) then made in-house at WEHI: the differences observed in EC50s across experiments are attributed to the different batches of M -833. For some experiments, 0, 0.25 or 2.5 mM of glucosamine (GlcN) was also added. Experiments were set up in technical duplicates or triplicates. Following a freeze -thaw cycle, lactate dehydrogenase (LDH) activity was assessed as an indicator of parasite growt h 5. 30 μL of parasite culture was incubated for 30 min in the dark with 75 μL Malstat mixture (0.1 M Tris pH 9.0, 20 g/L lactic acid, pH 7.5, 0.2% Triton-X100, 0.5 g/L acetylpyridine adenine dinucleotide (APAD, Sigma), 200 μg/mL nitroblue tetrazolium (NBT; Sigma), 1 μg/mL phenozine ethosulfate (PES; Sigma)). Absorbance was then measured at 650 nm, transformed using the formula below, plotted against the logarithm of the concentrations, and a non-linear regression (log(inhibitor) vs. response, variable slope) was calculated using GraphPad Prism to assess the half-inhibitory […]
Growth inhibition % = (1 − average(sample)− average(uRBC)) ∗ 100 […]
The DMSO samples were also used to assess growth of parasite in the presence of 0.25 and 2.5 mM GlcN (normalised by DMSO in 0 mM GlcN).
Egress, invasion & recovery assay. To measure egress, invasion and follow up recovery in the presence of different compounds, we adapted the method developed in6, using Hyp1-Nluc parasites7. These parasites episomally express the exported PEXEL protein Hyp1 (PF3D7_0113300) tagged with a NanoLuc luciferase (NLuc) and were selected with 2.5 nM WR99210 (Jacobus). Highly synchronised schizonts were […]

In the case of Cc1cc(Cl)c(S(=O)(=O)N2CCCC2)cc1OCC(=O)NC1CCCCC1 [M-833], the “Normalised to DMSO” value (M-833 0.0390625 uM, Pop E-F8 replicate 1) is reported as 109.671, the “Normalised to DMSO” value (M-833 0.0390625 uM, PopE-F8 replicate 3) is reported as 109.081 and the “Normalised to DMSO” value (M-833 0.078125 uM, Pop E-F8 replicate 1) is reported as 111.583. For the same compound, the “Normalised to DMSO” value (M-833 0.078125 uM, PopE-F8 replicate 3) was 106.576, the “Normalised to DMSO” value (M-833 0.15625 uM, Pop E-F8 replicate 1) was 105.619 and the “Normalised to DMSO” value (M-833 0.15625 uM, PopE-F8 replicate 3) was 106.576. For the same compound, the “Normalised to DMSO” value (M-833 0.3125 uM, Pop E-F8 replicate 1) was 109.939, the “Normalised to DMSO” value (M-833 0.3125 uM, PopE-F8 replicate 3) was 106.263 and the “Normalised to DMSO” value (M-833 0.625 uM, Pop E-F8 replicate 1) was 106.384. The “Normalised to DMSO” value (M-833 0.625 uM, PopE-F8 replicate 3) was 108.612, the “Normalised to DMSO” value (M-833 1.25 uM, Pop E-F8 replicate 1) was 102.255 and the “Normalised to DMSO” value (M-833 1.25 uM, PopE-F8 replicate 3) was 105.48. For the same compound, the “Normalised to DMSO” value (M-833 2.5 uM, Pop E-F8 replicate 1) was 99.4266, the “Normalised to DMSO” value (M-833 2.5 uM, PopE-F8 replicate 3) was 94.0501 and the “Normalised to DMSO” value (M-833 5 uM, Pop E-F8 replicate 1) was 83.5245. For the same compound, the “Normalised to DMSO” value (M-833 5 uM, PopE-F8 replicate 3) was 74.6347, the “Normalised to DMSO” value (M-833 10 uM, Pop E-F8 replicate 1) was 58.7156 and the “Normalised to DMSO” value (M-833 10 uM, PopE-F8 replicate 3) was 75.7307. It also gave an inhibition at 0.0390625 µM (Plasmodium falciparum, M-833 0.0390625 uM, Pop E-F8 replicate 1, read-out: % Inhibition) of -9.67%, an inhibition at 0.0390625 µM (Plasmodium falciparum, M-833 0.0390625 uM, PopE-F8 replicate 3, read-out: % Inhibition) of -9.08% and an inhibition at 0.078125 µM (Plasmodium falciparum, M-833 0.078125 uM, Pop E-F8 replicate 1, read-out: % Inhibition) of -11.6%. The inhibition at 0.078125 µM (Plasmodium falciparum, M-833 0.078125 uM, PopE-F8 replicate 3, read-out: % Inhibition) was -6.58%, the inhibition at 0.15625 µM (Plasmodium falciparum, M-833 0.15625 uM, Pop E-F8 replicate 1, read-out: % Inhibition) was -5.62% and the inhibition at 0.15625 µM (Plasmodium falciparum, M-833 0.15625 uM, PopE-F8 replicate 3, read-out: % Inhibition) was -6.58%. It also gave an inhibition at 0.3125 µM (Plasmodium falciparum, M-833 0.3125 uM, Pop E-F8 replicate 1, read-out: % Inhibition) of -9.94%, an inhibition at 0.3125 µM (Plasmodium falciparum, M-833 0.3125 uM, PopE-F8 replicate 3, read-out: % Inhibition) of -6.26% and an inhibition at 0.625 µM (Plasmodium falciparum, M-833 0.625 uM, Pop E-F8 replicate 1, read-out: % Inhibition) of -6.38%. The inhibition at 0.625 µM (Plasmodium falciparum, M-833 0.625 uM, PopE-F8 replicate 3, read-out: % Inhibition) was -8.61%, the inhibition at 1.25 µM (Plasmodium falciparum, M-833 1.25 uM, Pop E-F8 replicate 1, read-out: % Inhibition) was -2.26% and the inhibition at 1.25 µM (Plasmodium falciparum, M-833 1.25 uM, PopE-F8 replicate 3, read-out: % Inhibition) was -5.48%. For the same compound, the inhibition at 2.5 µM (Plasmodium falciparum, M-833 2.5 uM, Pop E-F8 replicate 1, read-out: % Inhibition) was 0.573%, the inhibition at 2.5 µM (Plasmodium falciparum, M-833 2.5 uM, PopE-F8 replicate 3, read-out: % Inhibition) was 5.95% and the inhibition at 5 µM (Plasmodium falciparum, M-833 5 uM, Pop E-F8 replicate 1, read-out: % Inhibition) was 16.5%. The inhibition at 5 µM (Plasmodium falciparum, M-833 5 uM, PopE-F8 replicate 3, read-out: % Inhibition) was 25.4%, the inhibition at 10 µM (Plasmodium falciparum, M-833 10 uM, Pop E-F8 replicate 1, read-out: % Inhibition) was 41.3% and the inhibition at 10 µM (Plasmodium falciparum, M-833 10 uM, PopE-F8 replicate 3, read-out: % Inhibition) was 24.3%. The inhibition at 0.0390625 µM (Plasmodium falciparum, Pop E-F8 replicate 1, M-833 0.0390625 uM) was -1.3%, the inhibition at 0.078125 µM (Plasmodium falciparum, Pop E-F8 replicate 1, M-833 0.078125 uM) was -1.67% and the inhibition at 0.15625 µM (Plasmodium falciparum, Pop E-F8 replicate 1, M-833 0.15625 uM) was 1.93%. For the same compound, the inhibition at 0.3125 µM (Plasmodium falciparum, Pop E-F8 replicate 1, M-833 0.3125 uM) was 3.08%, the inhibition at 0.625 µM (Plasmodium falciparum, Pop E-F8 replicate 1, M-833 0.625 uM) was 3.36% and the inhibition at 1.25 µM (Plasmodium falciparum, Pop E-F8 replicate 1, M-833 1.25 uM) was 4.32%. For the same compound, the inhibition at 2.5 µM (Plasmodium falciparum, Pop E-F8 replicate 1, M-833 2.5 uM) was 11.8%, the inhibition at 5 µM (Plasmodium falciparum, Pop E-F8 replicate 1, M-833 5 uM) was 18.8% and the inhibition at 10 µM (Plasmodium falciparum, Pop E-F8 replicate 1, M-833 10 uM) was 41%. The EC50 (Plasmodium falciparum, read-out: EC50 (95% confidence interval)) was greater than 10 µM, the “Normalised to DMSO” value (Pop E-F8 replicate 1, M-833 0.0390625 uM) was 101.305 and the “Normalised to DMSO” value (Pop E-F8 replicate 1, M-833 0.078125 uM) was 101.672. The “Normalised to DMSO” value (Pop E-F8 replicate 1, M-833 0.15625 uM) was 98.0669, the “Normalised to DMSO” value (Pop E-F8 replicate 1, M-833 0.3125 uM) was 96.9165 and the “Normalised to DMSO” value (Pop E-F8 replicate 1, M-833 0.625 uM) was 96.6437. For the same compound, the “Normalised to DMSO” value (Pop E-F8 replicate 1, M-833 1.25 uM) was 95.6831, the “Normalised to DMSO” value (Pop E-F8 replicate 1, M-833 2.5 uM) was 88.1997 and the “Normalised to DMSO” value (Pop E-F8 replicate 1, M-833 5 uM) was 81.2026. For the same compound, the “Normalised to DMSO” value (Pop E-F8 replicate 1, M-833 10 uM) was 58.9777.
